In brackets after ≈: the same amount, converted by molar mass. Like-named read-outs stand apart in the source and are kept apart here.
Tested on: Trichomonas vaginalis
Test: In vitro activity against T. vaginalis (IC50 determination)
Type: cell-based
Conditions: 37° C., aerobic, Modified Diamonds Medium
Description: The antiprotozoal e.g. antitrichomonal, activity of the compounds of the present invention may be assessed by conventional methods, for example by determining the minimum inhibition concentration (m.i.c.) or 50% inhibition level (IC50).
Modified Diamonds Medium (MDM) was prepared according to the method described in J. Kulda et al., American Journal of Obstetrics and Gynaecology 1970, 108, 908-18 and 4 cm^3 of the medium was pipetted into each of a series of tubes (usually 16 tubes). To each tube was added 0.5 cm^3 of varying concentration of a solution (usually in ethanol+MDM) or suspension of the test drug. Duplicate tubes for each drug concentration were prepared.
Finally, to each tube was added T. vaginalis (0.5 cm^3) at a concentration of 1×10^5 cm^-3,) to give a final trichomonad concentration of 1×10^4 cm^-3 in each tube. The tubes were then incubated (aerobically) at 37° C. and the resulting trichomonad numbers were counted at 24 and 48 hours using a haemacytometer.
This information was then used to determine the 50% inhibition concentration (IC50).

[1] = 24 hr, 1×10^4 trichomonads cm^-3, read-out: IC50 24 hr
[2] = 48 hr, 1×10^4 trichomonads cm^-3, read-out: IC50 48 hr

SMILES | IC50 [1] [mg/L] | IC50 [2] [mg/L]
CCCCOc1ccc2c(c1)CCN=C2C=Cc1ccccc1Cl [Example 12, 6-Butyloxy-1-(2-chlorostyryl)-3,4-dihydroisoquinoline] | 1.2 (≈ 3.53 µM) | 2 (≈ 5.88 µM)
CCCCOc1ccc2c(c1)CCN=C2C=Cc1ccc(OC)cc1OC [Example 14, 6-Butyloxy-3,4-dihydro-1-(2,4-dimethoxystyryl)isoquinoline] | 5.5 (≈ 15 µM) | 8 (≈ 21.9 µM)
CCCCOc1ccc2c(c1)CCN=C2C=Cc1ccc(C(C)(C)C)cc1 [Example 15, 6-Butyloxy-1-(4-t-butylstyryl)-3,4-dihydroisoquinoline] | 1.5 (≈ 4.15 µM) | 2.8 (≈ 7.74 µM)
CCCCOc1ccc2c(c1)CCN=C2C=Cc1ccc([N+](=O)[O-])cc1 [Example 19, 6-Butyloxy-3,4-dihydro-1-(4-nitrostyryl)isoquinoline] | 10 (≈ 28.5 µM) | 13.5 (≈ 38.5 µM)
CCCCOc1ccc2c(c1)CCN=C2C=Cc1ccc(-c2ccccc2)cc1 [Example 24, 6-Butyloxy-3,4-dihydro-1-(4-phenylstyryl)isoquinoline] | 1.2 (≈ 3.15 µM) | 128 (≈ 336 µM)
CC(C)(C)CCOc1ccc2c(c1)CCN=C2C=Cc1ccc(Cl)cc1Cl [Example 33, 1-(2,4-Dichlorostyryl)-3,4-dihydro-6-(3,3-dimethylbutyloxy)isoquinoline] | 0.7 (≈ 1.74 µM) | 1 (≈ 2.49 µM)
C=CCCOc1ccc2c(c1)CCN=C2C=Cc1ccc(Cl)cc1Cl [Example 46, 6-(But-3-enyloxy)-1-(2,4-dichlorostyryl)-3,4-dihydroisoquinoline] | 1.1 (≈ 2.95 µM) | 1.3 (≈ 3.49 µM)
CC(C)COc1ccc2c(c1)CCN=C2C=Cc1ccccc1Cl [Example 47, 1-(2-Chlorostyryl)-3,4-dihydro-6-(2-methylpropyloxy)-isoquinoline] | 1.1 (≈ 3.24 µM) | 1.7 (≈ 5 µM)
C(=Cc1ccccc1)C1=NCCc2cc(OCc3ccccc3)ccc21 [Example 53, 6-Benzyloxy-3,4-dihydro-1-styrylisoquinoline] | 3.2 (≈ 9.43 µM) | 5.5 (≈ 16.2 µM)
COc1ccc(C=CC2=NCCc3cc(OCc4ccccc4)ccc32)c(OC)c1 [Example 56, 6-Benzyloxy-3,4-dihydro-1-(2,4-dimethoxystyryl)isoquinoline] | 8 (≈ 20 µM) | 8 (≈ 20 µM)
CC(C)(C)c1ccc(C=CC2=NCCc3cc(OCc4ccccc4)ccc32)cc1 [Example 60, 6-Benzyloxy-1-(4-t-butylstyryl)-3,4-dihydroisoquinoline] | 5.6 (≈ 14.2 µM) | 10.5 (≈ 26.5 µM)
Clc1ccc(C=CC2=NCCc3cc(Oc4ccccc4)ccc32)cc1 [Example 65, 1-(4-Chlorostyryl)-3,4-dihydro-6-phenoxy-isoquinoline] | 1.2 (≈ 3.33 µM) | 1.6 (≈ 4.45 µM)
O=[N+]([O-])c1ccc(C=CC2=NCCc3cc(Oc4ccc(Cl)cc4)ccc32)cc1 [Example 68, 6-(4-Chlorophenoxy)-3,4-dihydro-1-(4-nitrostyryl)-isoquinoline] | 5 (≈ 12.4 µM) | 5.3 (≈ 13.1 µM)
CC(C)(C)c1ccc(Oc2ccc3c(c2)CCN=C3C=Cc2ccc(Cl)cc2Cl)cc1 [Example 71, 6-(4-t-Butylphenoxy)-1-(2,4-dichlorostyryl)-3,4-dihydroisoquinoline] | 0.8 (≈ 1.78 µM) | 1.4 (≈ 3.11 µM)
CC(C)(C)c1ccc(Oc2ccc3c(c2)CCN=C3C=Cc2ccccc2)cc1 [Example 73, 6-(4-t-Butylphenoxy)-3,4-dihydro-1-styrylisoquinoline] | 0.4 (≈ 1.05 µM) | 1.1 (≈ 2.88 µM)
CCCCCCOc1ccc2c(c1)CCN=C2C=Cc1ccccc1 [Example 74, 6-Hexyloxy-3,4-dihydro-1-styrylisoquinoline] | 3.3 (≈ 9.9 µM) | 0.9 (≈ 2.7 µM)
CCCCCCOc1ccc2c(c1)CCN=C2C=Cc1ccc(C#N)cc1 [Example 75, 1-(4-Cyanostyryl)-6-hexyloxy-3,4-dihydroisoquinoline] | 0.3 (≈ 0.837 µM) | 0.8 (≈ 2.23 µM)
CC(C)(C)c1ccc(COc2ccc3c(c2)CCN=C3C=Cc2ccccc2)cc1 [Example 80, 6-(4-t-Butylbenzyloxy)-3,4-dihydro-1-styrylisoquinoline] | 2.5 (≈ 6.32 µM) | 2.4 (≈ 6.07 µM)
CC(C)(C)c1ccc(COc2ccc3c(c2)CCN=C3C=Cc2ccc(Cl)cc2Cl)cc1 [Example 81, 6-(4-t-Butylbenzyloxy)-1-(2,4-dichlorostyryl)-3,4-dihydroisoquinoline] | 1.1 (≈ 2.37 µM) | 1.6 (≈ 3.45 µM)
C(=Cc1ccc(-c2ccccc2)cc1)C1=NCCc2cc(OCc3ccccc3)ccc21 [Example 82] | 0.6 (≈ 1.44 µM) | 2 (≈ 4.81 µM)
Clc1ccc(COc2ccc3c(c2)CCN=C3C=Cc2ccc(Cl)cc2Cl)cc1 [Example 85, 6-(4-Chlorobenzyloxy)-1-(2,4-dichlorostyryl)-3,4-dihydroisoquinoline] | 1.1 (≈ 2.48 µM) | 1.5 (≈ 3.39 µM)

SMILES | IC50 [1] [mg/L] | IC50 [2] [mg/L]
Clc1ccc(C=CC2=NCCc3cc(OCc4ccc(Cl)cc4Cl)ccc32)c(Cl)c1 [Example 92, 6-(2,4-Dichlorobenzyloxy)-1-(2,4-dichlorostyryl)-3,4-dihydroisoquinoline] | 0.5 (≈ 1.05 µM) | 1 (≈ 2.1 µM)
C(=C\c1cccs1)/C1=NCCc2cc(OCc3ccccc3)ccc21 [Example 104, (E)-6-Benzyloxy-3,4-dihydro-1-[2-(2-thienyl)vinyl]isoquinoline] | 7.4 (≈ 21.4 µM) | 7.3 (≈ 21.1 µM)
CCCCOc1ccc2c(c1)CCN=C2/C=C/c1cccs1 [Example 105, (E)-6-Butyloxy-3,4-dihydro-1-[2-(2-thienyl)vinyl]isoquinoline] | 2 (≈ 6.42 µM) | 6.7 (≈ 21.5 µM)
C(=C\c1ccsc1)/C1=NCCc2cc(OCc3ccccc3)ccc21 [Example 106, (E)-6-Benzyloxy-3,4-dihydro-1-(3-thienyl)vinyl isoquinoline] | 1.4 (≈ 4.05 µM) | 3.7 (≈ 10.7 µM)
Brc1csc(/C=C/C2=NCCc3cc(OCc4ccccc4)ccc32)c1 [Example 108, (E)-6-Benzyloxy-3,4-dihydro-1-[2-(4-bromo-2-thienyl)vinyl]isoquinoline] | 2.7 (≈ 6.36 µM) | 6.1 (≈ 14.4 µM)
CCCOc1ccc2c(c1)CCN=C2/C=C/c1ccc([N+](=O)[O-])o1 [Example 113, (E)-3,4-Dihydro-6-propyloxy-1-[2-(5-nitro-2-furyl)]vinyl isoquinoline] | 0.7 (≈ 2.14 µM) | 1.2 (≈ 3.68 µM)
O=[N+]([O-])c1ccc(/C=C/C2=NCCc3cc(OCc4ccccc4)ccc32)o1 [Example 115, (E)-6-Benzyloxy-3,4-dihydro-1-[2-(5-nitro-2-furyl)]vinyl isoquinoline] | 0.4 (≈ 1.07 µM) | 1 (≈ 2.67 µM)
C(/C=C/c1ccccc1)=C\C1=NCCc2cc(OCc3ccccc3)ccc21 [Example 126, (E,E)-6-Benzyloxy-3,4-dihydro-1-(4-phenylbuta-1,3-dienyl)isoquinoline] | 1.5 (≈ 4.1 µM) | 1.7 (≈ 4.65 µM)
C/C=C/C=C/C1=NCCc2cc(OCCCCCC)ccc21 [Example 129, (E,E)-6-Hexyloxy-3,4-dihydro-1-(penta-1,3-dienyl)isoquinoline] | 2.9 (≈ 9.75 µM) | 3.1 (≈ 10.4 µM)
C/C=C/C=C/C1=NCCc2cc(OCc3ccccc3)ccc21 [Example 130, (E,E)-6-Benzyloxy-3,4-dihydro-1-(penta-1,3-dienyl)isoquinoline] | 3.6 (≈ 11.9 µM) | 5.4 (≈ 17.8 µM)
CCCCOc1ccc2c(c1)CCN=C2/C=C/c1cccc2ccccc12 [Example 135, (E)-6-Butyloxy-3,4-dihydro-1-[2-(1-naphthyl)vinyl]isoquinoline] | 1.3 (≈ 3.66 µM) | 1.6 (≈ 4.5 µM)
CC=CC1=NCCc2cc(OCCC)ccc21 [Example 137, 3,4-Dihydro-1-prop-1-enyl-6-propyloxyisoquinoline] | 1 (≈ 4.36 µM) | 1.7 (≈ 7.41 µM)
CCCCOc1ccc2c(c1)CCN=C2/C(Br)=C/c1ccccc1 [Example 147, (Z)-6-Butyloxy-1-(1-bromo-2-phenylvinyl)-3,4-dihydroisoquinoline] | 0.2 (≈ 0.52 µM) | 0.3 (≈ 0.781 µM)
CCCCOc1ccc2c(c1)CCN=C2/C(Cl)=C/c1ccccc1 [Example 150] | 0.2 (≈ 0.588 µM) | 0.2 (≈ 0.588 µM)
Cl/C(=C\c1ccccc1)C1=NCCc2cc(OCc3ccccc3)ccc21 [Example 151, (Z)-6-Benzyloxy-1-(1-chloro-2-phenylvinyl)-3,4-dihydroisoquinoline] | 0.3 (≈ 0.802 µM) | 0.3 (≈ 0.802 µM)
CCCCOc1ccc2c(c1)CCN=C2/C(C)=C/c1ccccc1 [Example 153, (E)-6-Butyloxy-3,4-dihydro-1-(2-phenyl-1-methylvinyl)isoquinoline] | 0.3 (≈ 0.939 µM) | 0.5 (≈ 1.57 µM)
CCCOc1cc2c(cc1OCCC)C(C=Cc1ccc(Cl)cc1Cl)=NCC2 [Example 155, 1-(2,4-Dichlorostyryl)-3,4-dihydro-6,7-dipropyloxyisoquinoline] | 1.2 (≈ 2.87 µM) | 2.2 (≈ 5.26 µM)
CCCCOc1cc2c(cc1OCCCC)C(C=Cc1ccc(Cl)cc1)=NCC2 [Example 157, 6,7-Dibutyloxy-1-(4-chlorostyryl)-3,4-dihydroisoquinoline] | 1.8 (≈ 4.37 µM) | 2.1 (≈ 5.1 µM)
CCCOc1cc2c(cc1OCCC)C(C=Cc1ccc(Cl)cc1Cl)=NC(C)C2 (stereo not drawn) [Example 158, 1-(2,4-Dichlorostyryl)-3,4-dihydro-3-methyl-6,7-dipropyloxyisoquinoline] | 0.8 (≈ 1.85 µM) | 1.1 (≈ 2.54 µM)
CCCCOc1cc2c(cc1OCC)C(C=Cc1ccc(Cl)cc1Cl)=NCC2 [Example 160, 6-Butyloxy-1-(2,4-dichlorostyryl)-7-ethoxy-3,4-dihydroisoquinoline] | 0.6 (≈ 1.43 µM) | 1 (≈ 2.39 µM)
CCCCOc1cc2c(cc1OCC)CCN=C2C=Cc1ccc(Cl)cc1Cl [Example 161, 7-Butyloxy-1-(2,4-dichlorostyryl)-6-ethoxy-3,4-dihydroisoquinoline] | 0.7 (≈ 1.67 µM) | 1.4 (≈ 3.35 µM)
